In US20020137929A1, “1 - (3-heterocyclylphenyl) isothiourea, -isourea, -guanidine and -amidine herbicidal agents” (Intellectual Property Department, BASF Aktiengesellschaft, priority 1998, published 2002):

Columns and labels:
GALAP (Galium) = experiment: Postemergence herbicidal evaluation; format: in vivo, Galium aparine
Description: (§1) In the tests, seedling plants are grown in jiffy flats for about two weeks. The test compounds are dispersed in 50/50 acetone/water mixtures containing 0.5% TWEEN®20, a polyoxyethylene sorbitan monolaurate surfactant of Atlas Chemical Industries, in sufficient quantities to provide the equivalent of about 0.0156 kg to 0.500 kg per hectare of active compound when applied to the plants through a spray nozzle operating at 40 psi for a predetermined time. After spraying, the plants are placed on greenhouse benches and are cared for in accordance with conventional greenhouse procedures. From four to five weeks after treatment, the seedling plants are examined and rated according to the rating system set forth below. Where more than one test is involved for a given compound, the data are averaged.
(§2) Plant species employed in these evaluations are reported by header abbreviation, common name and scientific name.
(§3) Results of herbicide evaluation are expressed on a rating scale (0-9). The scale is based upon a visual observation of plant stand, vigor, malformation, size, chlorosis and overall plant appearance as compared with a control.

[1] = tested on: SAGPY (Arrowhead (Pygmaea)); experiment: Preemergence weed control under flooded paddy conditions; format: in vivo, Sagittaria pygmaea; conditions: rated 3-4 weeks after treatment
Description: as §3
(§4) Preemergence herbicidal activity under flooded paddy conditions is determined as follows: plant seeds or propagating organs are planted in the top 0.5 cm of silt loam soil in 32 oz. plastic containers with a diameter of 10.5 cm and no drainage holes. Water is added to these containers and maintained at 1.5 to 3 cm above the soil surface for the duration of the experiment. The test compounds are applied as aqueous/acetone mixtures 50/50 v/v pipetted directly into the flood water to give the equivalent of about 0.0313 to 0.500 kg/ha of active ingredient. The treated containers are placed on greenhouse benches and cared for in accordance with conventional greenhouse procedures. Three to four weeks after treatment, the test is terminated and each container is examined and herbicidal effect rated according to the rating system provided in Example 37. The compounds evaluated are reported by compound number given in Example 37.
(§5) Plant species employed in this example are reported by header abbreviation, common name and scientific name.

ABUTH (Velvetleaf) = experiment: Postemergence herbicidal evaluation; format: in vivo, Abutilon theophrasti
Description: as §1, §2, §3

[2] = tested on: CHEAL (Lambsquarters, Common); experiment: Postemergence herbicidal evaluation; format: in vivo, Chenopodium album
Description: as §1, §2, §3

[3] = tested on: TRZAWR (Wheat, Winter, cv Riband); experiment: Postemergence herbicidal evaluation; format: in vivo, Triticum aestivum
Description: as §1, §2, §3

CASOB (Sicklepod) = experiment: Postemergence herbicidal evaluation; format: in vivo, Cassia obtusifolia
Description: as §1, §2, §3

CYPIR (Rice Flatsedge) [4] = experiment: Preemergence weed control under flooded paddy conditions; format: in vivo, Cyperus iria; conditions: rated 3-4 weeks after treatment
Description: as §3, §4, §5

ECHCG (Barnyardgrass) = experiment: Postemergence herbicidal evaluation; format: in vivo, Echinochloa crus-galli
Description: as §1, §2, §3

CYPIR (Rice Flatsedge) [5] = experiment: Postemergence weed control under flooded paddy conditions; format: in vivo, Cyperus iria; conditions: postemergence weeds, 3-4 weeks after treatment
Excerpt: as §3
(§6) Plastic containers containing weeds which are 3 to 5 cm tall and rice seedlings at the 1.5 to 2.5 leaf stage are flooded with water. The water is maintained at 1.5 to 3 cm above the soil surface for the duration of the experiment. Test compounds are applied as aqueous/ acetone mixtures 50/50 v/v directly into the flood water to provide the equivalent of about 0.0313 to 0.500 kg/ha of active ingredient. The treated containers are placed on greenhouse benches and cared for in accordance with conventional greenhouse procedures. Three to four weeks after treatment, the test is terminated and each container is examined and herbicidal effect rated according to the rating system provided in Example 37. The compounds evaluated are reported by compound number given in Example 37.

ORYSAT (Rice, Tebonnet) = experiment: Postemergence herbicidal evaluation; format: in vivo, Oryza sativa, (L.) Tebonnet
Description: as §1, §2, §3

CYPSE (Flatsedge) [6] = experiment: Postemergence weed control under flooded paddy conditions; format: in vivo, Cyperus serotinus; conditions: postemergence weeds, 3-4 weeks after treatment
Excerpt: as §3, §6

SETVI (Foxtail, Green) = experiment: Postemergence herbicidal evaluation; format: in vivo, Setaria viridis
Description: as §1, §2, §3

[7] = tested on: GLXMAW (Soybean, Williams); experiment: Postemergence herbicidal evaluation; format: in vivo, Glycine max, (L.) Merr. cv Williams
Description: as §1, §2, §3

ZEAMX (Corn, Field) = experiment: Postemergence herbicidal evaluation; format: in vivo, Zea mays
Description: as §1, §2, §3

MOOVA (Monochoria) [8] = experiment: Postemergence weed control under flooded paddy conditions; format: in vivo, Monochoria vaginalis; conditions: postemergence weeds, 3-4 weeks after treatment
Excerpt: as §3, §6

[9] = tested on: SAGPY (Arrowhead (Pygmaea)); experiment: as above; format: in vivo, Sagittaria pygmaea; conditions: postemergence weeds, 3-4 weeks after treatment
Excerpt: as §3, §6

MOOVA (Monochoria) [10] = experiment: Preemergence weed control under flooded paddy conditions; format: in vivo, Monochoria vaginalis; conditions: rated 3-4 weeks after treatment
Description: as §3, §4, §5

[11] = tested on: ECHORC (Watergrass (Calif.)); experiment: as above; format: in vivo, Echinochloa oryzoides; conditions: rated 3-4 weeks after treatment
Description: as §3, §4, §5

[12] = tested on: ECHORC (Watergrass (Calif.)); experiment: Postemergence weed control under flooded paddy conditions; format: in vivo, Echinochloa oryzoides; conditions: postemergence weeds, 3-4 weeks after treatment
Excerpt: as §3, §6

[13] = tested on: IPOHE (Morningglory, Ivyleaf); experiment: Postemergence herbicidal evaluation; format: in vivo, Ipomoea hederacea
Description: as §1, §2, §3

CYPSE (Flatsedge) [14] = experiment: Preemergence weed control under flooded paddy conditions; format: in vivo, Cyperus serotinus; conditions: rated 3-4 weeks after treatment
Description: as §3, §4, §5

AMBEL (Ragweed, Common) = experiment: Postemergence herbicidal evaluation; format: in vivo, Ambrosia artemisifolia
Description: as §1, §2, §3

CCOC(=O)CN1C(=O)C(CC(N)=O)S/C1=N/c1cc(-n2c(=O)cc(C(F)(F)F)n(C)c2=O)c(F)cc1Cl (stereo not shown) [Compound 56, Ethyl 5-(carbamoylmethyl)-2-{{2-chloro-5-[3,6-dihydro-3-methyl-2,6-dioxo-4-(trifluoromethyl)-1(2H)-pyrimidinyl]-4-fluorophenyl}imino}-4-oxo-3-thiazolidineacetate]
8.0: Postemergence herbicidal rating GLXMAW ([7]; Rate 0.0630 kg/ha)
5.0: Postemergence herbicidal rating TRZAWR ([3]; Rate 0.0630 kg/ha) | Postemergence herbicidal rating ZEAMX (ZEAMX (Corn, Field); Rate 0.0158 kg/ha) | Herbicidal rating ECHORC ([11]; 0.2500 kg/ha) | Herbicidal rating ECHORC ([12]; rate 0.2500 kg/ha)
9.0: Postemergence herbicidal rating GALAP (GALAP (Galium); Rate 0.0630 kg/ha) | Postemergence herbicidal rating ABUTH (ABUTH (Velvetleaf); Rate 0.0158 kg/ha) | Postemergence herbicidal rating ABUTH (ABUTH (Velvetleaf); Rate 0.0315 kg/ha) | Postemergence herbicidal rating ABUTH (ABUTH (Velvetleaf); Rate 0.0630 kg/ha) | Postemergence herbicidal rating CHEAL ([2]; Rate 0.0158 kg/ha) | Postemergence herbicidal rating CHEAL ([2]; Rate 0.0315 kg/ha) | Postemergence herbicidal rating CHEAL ([2]; Rate 0.0630 kg/ha) | Postemergence herbicidal rating CASOB (CASOB (Sicklepod); Rate 0.0630 kg/ha) | Herbicidal rating MOOVA (MOOVA (Monochoria) [8]; rate 0.1250 kg/ha) | Herbicidal rating MOOVA (MOOVA (Monochoria) [8]; rate 0.2500 kg/ha) | Herbicidal rating MOOVA (MOOVA (Monochoria) [10]; 0.1250 kg/ha) | Herbicidal rating MOOVA (MOOVA (Monochoria) [10]; 0.2500 kg/ha) | Postemergence herbicidal rating IPOHE ([13]; Rate 0.0158 kg/ha) | Postemergence herbicidal rating IPOHE ([13]; Rate 0.0315 kg/ha) | Postemergence herbicidal rating IPOHE ([13]; Rate 0.0630 kg/ha) | Postemergence herbicidal rating AMBEL (AMBEL (Ragweed, Common); Rate 0.0158 kg/ha) | Postemergence herbicidal rating AMBEL (AMBEL (Ragweed, Common); Rate 0.0315 kg/ha) | Postemergence herbicidal rating AMBEL (AMBEL (Ragweed, Common); Rate 0.0630 kg/ha)
7.5: Postemergence herbicidal rating GLXMAW ([7]; Rate 0.0315 kg/ha)
5.5: Postemergence herbicidal rating ZEAMX (ZEAMX (Corn, Field); Rate 0.0315 kg/ha)
4.5: Postemergence herbicidal rating TRZAWR ([3]; Rate 0.0315 kg/ha)
1.5: Postemergence herbicidal rating ORYSAT (ORYSAT (Rice, Tebonnet); Rate 0.0158 kg/ha)
4.0: Postemergence herbicidal rating TRZAWR ([3]; Rate 0.0158 kg/ha) | Postemergence herbicidal rating CASOB (CASOB (Sicklepod); Rate 0.0158 kg/ha) | Postemergence herbicidal rating CASOB (CASOB (Sicklepod); Rate 0.0315 kg/ha)
7.0: Postemergence herbicidal rating SETVI (SETVI (Foxtail, Green); Rate 0.0630 kg/ha) | Postemergence herbicidal rating GLXMAW ([7]; Rate 0.0158 kg/ha)
3.0: Postemergence herbicidal rating GALAP (GALAP (Galium); Rate 0.0158 kg/ha) | Postemergence herbicidal rating ECHCG (ECHCG (Barnyardgrass); Rate 0.0630 kg/ha) | Herbicidal rating ECHORC ([11]; 0.1250 kg/ha) | Herbicidal rating ECHORC ([12]; rate 0.1250 kg/ha)
0.0: Herbicidal rating SAGPY ([1]; 0.0313 kg/ha) | Herbicidal rating SAGPY ([1]; 0.0625 kg/ha) | Herbicidal rating SAGPY ([1]; 0.1250 kg/ha) | Herbicidal rating SAGPY ([1]; 0.2500 kg/ha) | Herbicidal rating CYPIR (CYPIR (Rice Flatsedge) [4]; 0.0313 kg/ha) | Herbicidal rating CYPIR (CYPIR (Rice Flatsedge) [4]; 0.0625 kg/ha) | Herbicidal rating CYPIR (CYPIR (Rice Flatsedge) [4]; 0.1250 kg/ha) | Herbicidal rating CYPIR (CYPIR (Rice Flatsedge) [4]; 0.2500 kg/ha) | Herbicidal rating CYPIR (CYPIR (Rice Flatsedge) [5]; rate 0.0313 kg/ha) | Herbicidal rating CYPIR (CYPIR (Rice Flatsedge) [5]; rate 0.0625 kg/ha) | Herbicidal rating CYPIR (CYPIR (Rice Flatsedge) [5]; rate 0.1250 kg/ha) | Herbicidal rating CYPIR (CYPIR (Rice Flatsedge) [5]; rate 0.2500 kg/ha) | Herbicidal rating CYPSE (CYPSE (Flatsedge) [6]; rate 0.0313 kg/ha) | Herbicidal rating CYPSE (CYPSE (Flatsedge) [6]; rate 0.0625 kg/ha) | Herbicidal rating CYPSE (CYPSE (Flatsedge) [6]; rate 0.1250 kg/ha) | Herbicidal rating CYPSE (CYPSE (Flatsedge) [6]; rate 0.2500 kg/ha) | Herbicidal rating SAGPY ([9]; rate 0.0313 kg/ha) | Herbicidal rating SAGPY ([9]; rate 0.0625 kg/ha) | Herbicidal rating SAGPY ([9]; rate 0.1250 kg/ha) | Herbicidal rating SAGPY ([9]; rate 0.2500 kg/ha) | Herbicidal rating ECHORC ([11]; 0.0313 kg/ha) | Herbicidal rating ECHORC ([11]; 0.0625 kg/ha) | Herbicidal rating ECHORC ([12]; rate 0.0313 kg/ha) | Herbicidal rating ECHORC ([12]; rate 0.0625 kg/ha) | Herbicidal rating CYPSE (CYPSE (Flatsedge) [14]; 0.0313 kg/ha) | Herbicidal rating CYPSE (CYPSE (Flatsedge) [14]; 0.0625 kg/ha) | Herbicidal rating CYPSE (CYPSE (Flatsedge) [14]; 0.1250 kg/ha) | Herbicidal rating CYPSE (CYPSE (Flatsedge) [14]; 0.2500 kg/ha)
6.5: Postemergence herbicidal rating ZEAMX (ZEAMX (Corn, Field); Rate 0.0630 kg/ha)
2.0: Postemergence herbicidal rating ECHCG (ECHCG (Barnyardgrass); Rate 0.0158 kg/ha) | Postemergence herbicidal rating ECHCG (ECHCG (Barnyardgrass); Rate 0.0315 kg/ha) | Postemergence herbicidal rating ORYSAT (ORYSAT (Rice, Tebonnet); Rate 0.0315 kg/ha)
6.0: Postemergence herbicidal rating GALAP (GALAP (Galium); Rate 0.0315 kg/ha) | Postemergence herbicidal rating SETVI (SETVI (Foxtail, Green); Rate 0.0158 kg/ha) | Postemergence herbicidal rating SETVI (SETVI (Foxtail, Green); Rate 0.0315 kg/ha) | Herbicidal rating MOOVA (MOOVA (Monochoria) [8]; rate 0.0313 kg/ha) | Herbicidal rating MOOVA (MOOVA (Monochoria) [8]; rate 0.0625 kg/ha) | Herbicidal rating MOOVA (MOOVA (Monochoria) [10]; 0.0313 kg/ha) | Herbicidal rating MOOVA (MOOVA (Monochoria) [10]; 0.0625 kg/ha)
2.5: Postemergence herbicidal rating ORYSAT (ORYSAT (Rice, Tebonnet); Rate 0.0630 kg/ha)
